# Data: patent US7129352B2, “Crystalline salts of 7-′4-(4-fluorophenyl) -6-isopropyl-2-′methyl (methylsulfonyl) amino!pyrimidin-5-yl!- (3R, 5S) -3, 5-dihydroxyhept-6-enoic acid” (AstraZeneca AB, priority 2000, dated 2006)
# Legend:
# [1] = hygroscopicity of the crystalline salt; assay type: physicochemical
# [2] = solubility profile of the crystalline salt; assay type: physicochemical
substance,measurement,setting,value
"tris(hydroxymethyl)methylammonium (E)-7-[4-(4-fluorophenyl)-6-isopropyl-2-[methyl(methylsulfonyl)amino]pyrimidin-5-yl]-(3R,5S)-3,5-dihydroxyhept-6-enoate [Example 2]",hygroscopicity,[1],non-hygroscopic
same,solubility profile,[2],advantageous solubility profile
